US20240358713A1, “PHARMCAEUTICAL COMPOSITION CONTAINING BENZOXAZEPINE DERIVATIVES, AND A METHOD FOR TREATING CANCER” (Yarmouk University, priority 2023, published 2024)
“Also recorded” adds a separate entry of the source.

Experiments:
[1] = test system: adenocarcinoma human alveolar basal epithelial cells (A549); experiment: MTT cytotoxic / anti-proliferative assay, A549; assay type: cell-based
Procedure: (§1) The benxoxazepine derivative compound of the present disclosure was dissolved in DMSO to give a […] concentration. The DMSO concentration was less than 1.0% in all experiments and controls.
(§2) The evaluation of anti-proliferative activity was preformed to different cancer cells named human cervical adenocarcinoma (HeLa), adenocarcinoma human alveolar basal epithelial cells (A549), human breast cancer (MCF-7), colon adenocarcinoma Caco-2, compared with human fibroblast cell lines (F2). All cells were grown in Dulbecco's modified Eagle's minimal essential medium (DMEM), supplemented with 25 mM glucose, 10% inactivated fetal bovine serum (Flow, McLean, VA, USA), and 1% penicillin/streptomycin, and maintained at 37° C. in a humidified incubator with 5% CO2. The cells with 30-40 passages were used for further investigations.
(§3) Exponentially growing cells A549, HeLa, Caco-2, MCF-7, and normal fibroblast cell cells have been washed and seeded at 3×10^3 cells/well (100 μL/well) in 96 well microplates (Greiner, Germany). After 24 h, cells were confluent, and media was changed, and cells were incubated with the compound of the present disclosure (200-1 μg/mL) for 24 h. In vitro anti-proliferative activity was measured by the cell growth inhibition assay using 3-(4,5-dimethyl-thiazol-2-yl)-2,5-di-phenyltetrazolium bromide (MTT) assay according to the manufacturer's instructions (Promega Corporation, Madison, WI). Briefly, the assay measured the formation of blue formazan product as a result of the reduction of MTT by mitochondrial dehydrogenase, which indicates the normal function of mitochondria and cell viability. The amount of formazan was quantified using a microplate reader (Thermo Fisher Scientific, Waltham, MA, USA) and compared to the optical density obtained for the control (untreated) at 570 nm. The IC50 values were calculated according to the equation for Boltzmann sigmoidal concentration response curve using the nonlinear regression models (GraphPad, Prism Version 7, San Diego, CA, USA). The average of three replicates of IC50 values were calculated and mentioned in the present disclosure Table 1.
(§4) The anti-proliferative activity of the investigated compound of formula 1 of the present disclosure was expressed in IC50 values (the concentration needed to inhibit 50% of cell growth) compared to untreated cells (negative control).

[2] = test system: human cervical adenocarcinoma (HeLa); experiment: MTT cytotoxic / anti-proliferative assay, HeLa; assay type: cell-based
Procedure: as §1, §2
as §3, with “After 24 h, cells were confluent, and media was changed, and cells were incubated with the compound of the present disclosure (200-1 μg/mL) for 24 h.” left out, “1. […]” for “1.”

[3] = MTT cytotoxic / anti-proliferative assay, Caco-2; assay type: cell-based, human; conditions: human; calculated SI for cancer cell Caco-2; SI higher than 1.0 considered selective to cancer cell; read-out: Selectivity index (SI) Caco-2
[4] = test system: colon adenocarcinoma Caco-2; experiment: MTT cytotoxic / anti-proliferative assay, Caco-2; assay type: cell-based, human; conditions: MTT
[5] = test system: human breast cancer (MCF-7); experiment: MTT cytotoxic / anti-proliferative assay, MCF-7; assay type: cell-based
Procedure: as §1, §2, §3, §4

[6] = test system: human fibroblast cell lines (F2); experiment: MTT cytotoxic / anti-proliferative assay, normal fibroblast; assay type: cell-based
Procedure: as §1, §2
as §3, with “After 24 h, cells were confluent, and media was changed, and cells were incubated with the compound of the present disclosure (200-1 μg/mL) for 24 h.” left out, “1. […]” for “1.”

[7] = test system: release of IL-6 of A549 cell lines; experiment: IL-6 release ELISA, A549; assay type: cell-based, human; conditions: 1, 5, 10, 25, 50 μg/mL, overnight, ELISA of supernatant
Procedure: (§5) Non-treated cells were used as negative controls. […] All incubation steps were performed at room temperature.

[8] = test system: release of IL-6 of HeLa cell lines; experiment: IL-6 release ELISA, HeLa; assay type: cell-based, human; conditions: 1, 5, 10, 25, 50 μg/mL, overnight, ELISA of supernatant
Procedure: as §5

[9] = test system: release of IL-6 of MCF-7 cell lines; experiment: IL-6 release ELISA, MCF-7; assay type: cell-based, human; conditions: 1, 5, 10, 25, 50 μg/mL, overnight, ELISA of supernatant
Procedure: as §5

[10] = test system: release of IL-6 of normal fibroblast cell; experiment: IL-6 release ELISA, normal fibroblast; assay type: cell-based, human; conditions: 1, 5, 10, 25, 50 μg/mL, overnight, ELISA of supernatant
Procedure: as §5

[11] = test system: release of TNF-α of Caco-2 cell lines; experiment: TNF-α release ELISA, Caco-2; assay type: cell-based, human; conditions: 1, 5, 10, 25, 50 μg/mL, overnight, ELISA of supernatant
Procedure: as §5

[12] = test system: release of TNF-α of normal fibroblast cell; experiment: TNF-α release ELISA, normal fibroblast; assay type: cell-based, human; conditions: 1, 5, 10, 25, 50 μg/mL, overnight, ELISA of supernatant
Procedure: as §5

[13] = test system: release of TNF-α of A549 cell lines; experiment: TNF-α release ELISA, A549; assay type: cell-based, human; conditions: 1, 5, 10, 25, 50 μg/mL, overnight, ELISA of supernatant
Procedure: as §5

[14] = test system: release of TNF-α of HeLa cell lines; experiment: TNF-α release ELISA, HeLa; assay type: cell-based, human; conditions: 1, 5, 10, 25, 50 μg/mL, overnight, ELISA of supernatant
Procedure: as §5

[15] = test system: release of TNF-α of MCF-7 cell lines; experiment: TNF-α release ELISA, MCF-7; assay type: cell-based, human; conditions: 1, 5, 10, 25, 50 μg/mL, overnight, ELISA of supernatant
Procedure: as §5

[16] = MTT, 24 h incubation, average of three replicates
[17] = 24 h incubation, average of three replicates

## c1ccc2c3c(ccc2c1)OCCn1c-3nc2ccccc21 [compound of the general Formula (I)]
[1]; Homo sapiens, A549, MTT, 24 h incubation, average of three replicates
  IC50: 15.7 ± 0.54 µg/mL
[1]; calculated SI for cancer cell A549, SI higher than 1.0 considered selective to cancer cell
  Selectivity index (SI) A549: 1.27
[2]; Homo sapiens, HeLa, 24 h incubation, average of three replicates
  IC50: 0.003 µg/mL
[3]
  selectivity ratio at 24 h: 0.48
[4]; Homo sapiens, Caco-2, 24 h incubation, average of three replicates
  IC50: 41.3 µg/mL
[5]; Homo sapiens, MCF7, MTT, 24 h incubation, average of three replicates
  IC50: 17.6 ± 0.72 µg/mL
[5]; calculated SI for cancer cell MCF-7, SI higher than 1.0 considered selective to cancer cell
  Selectivity index (SI) MCF-7: 1.13
[6]; Homo sapiens, Fibroblast, 24 h incubation, average of three replicates
  IC50: 19.9 ± 1.4 µg/mL
[7]
  effect on the release of IL-6, A549: stimulated the release of IL-6
[7]; listed as tested compound
  effect on the release of IL-6, A549: able to stimulate the release of IL-6
[8]
  effect on the release of IL-6, HeLa: stimulated the release of IL-6
[8]; listed as tested compound
  effect on the release of IL-6, HeLa: able to stimulate the release of IL-6
[9]
  effect on the release of IL-6, MCF-7: stimulated the release of IL-6
[9]; listed as tested compound
  effect on the release of IL-6, MCF-7: able to stimulate the release of IL-6
[10]; listed as tested compound
  effect on the release of IL-6, normal fibroblast cells: no effect; also recorded: not able to induce the release
[11]
  effect on the release of TNF-α, Caco-2: only 50 μg/mL concentration was able to stimulate Caco-2 cell lines to significantly release TNF-α
[11]; listed as tested compound
  effect on the release of TNF-α, Caco-2: able to stimulate Caco-2 cell lines to significantly release TNF-α when treated with 50 μg/mL concentration only
[12]
  effect on the release of TNF-α, normal fibroblast cells: not able to induce the release

## N.N.[Cl][Pt][Cl] [Cisplatin, cisplatin, reference compound]
[1]; [16]
  IC50 A549: 3.13 ± 0.53 µg/mL
[2]; [17]
  IC50 HeLa: 0.13 µg/mL
[5]; [16]
  IC50 MCF-7: 1.51 ± 0.10 µg/mL
[6]; [17]
  IC50 Fibroblast: 2.83 ± 0.12 µg/mL
[10]
  effect on the release of IL-6, normal fibroblast cells: not able to induce the release
[13]
  effect on the release of TNF-α, A549: release TNF-α
[14]
  effect on the release of TNF-α, HeLa: release TNF-α
[15]
  effect on the release of TNF-α, MCF-7: release TNF-α
[12]
  effect on the release of TNF-α, normal fibroblast cells: not able to induce the release

## C[S+](C)[O-] [DMSO %, dimethyl sulfoxide]
[1]; MTT, DMSO, value as % DMSO
  IC50 A549 (DMSO %): 0.33 ± 0.05%
[2]; DMSO, value as % DMSO
  IC50 HeLa (DMSO %): 0.15 ± 0.02%
[4]; DMSO, value as % DMSO
  IC50 Caco-2 (DMSO %): 23.40 ± 3.20%
[5]; MTT, DMSO, value as % DMSO
  IC50 MCF-7 (DMSO %): 0.097 ± 0.02%
[6]; DMSO, value as % DMSO
  IC50 Fibroblast (DMSO %): 0.13 ± 0.02%
